Results: PMC12017303 (Science Advances, 2025)

Assays:
SARS-CoV-2 Beta variant = settings: mouse, in vivo
[1] = test system: SARS-CoV-2 variants WA1, XBB.1.5, XBB.1.16, and EG.5.1; assay: microbe, parasite or virus in culture; assay type: cell-based; settings: Severe acute respiratory syndrome coronavirus 2, read-out: EC50 range against all viruses tested

SMILES | IC50 for decrease in lung virus replication (SARS-CoV-2 Beta variant) [mg/kg] | SARS-CoV-2 N protein in lung (immunohistochemistry) (SARS-CoV-2 Beta variant) | mononuclear cell infiltration and respiratory epithelial cell injury in lung (SARS-CoV-2 Beta variant) | reduction in viral load compared to the ensitrelvir-treated arm (SARS-CoV-2 Beta variant) [log] | reduction in viral load compared to vehicle-treated animals (SARS-CoV-2 Beta variant) | reduction in viral titers (SARS-CoV-2 Beta variant) | viral titers after three doses, result in words (SARS-CoV-2 Beta variant) | reduction in virus replication compared to the vehicle (plaque assay) (SARS-CoV-2 Beta variant) [log] | EC50 [1] [nM]
C#CCn1c(C)c(-n2nnc3ccccc32)c(=O)n(-c2cncc3ccccc23)c1=O [AVI-4516] | 14.7 | minimal or no viral protein present | notably absent | – | – | – | – | – | –
C#CCn1c(C)c(-n2nnc3cc(F)c(F)cc32)c(=O)n(-c2cncc3ccccc23)c1=O [AVI-4773] | – | – | – | > 3 | ~ 6 log | > 1,000,000 | below detectable levels | – | –
CC(C)(C)[C@H](NC(=O)C(F)(F)F)C(=O)N1C[C@H]2[C@@H]([C@H]1C(=O)N[C@H](C#N)C[C@@H]1CCNC1=O)C2(C)C [nirmatrelvir, reference compound] | – | minimal or no viral protein present | – | – | – | – | – | 2 | 21 to 67
